Assay results: patent US11510926B2, “Pharmaceutical salts/co-crystals of pentoxifylline, clonidine and linsidomine with caffeic, protocatechuic or alpha-lipoic acid an use thereof for treatment of pain” (priority 2018, dated 2022)

Legend:
CPIP rat model of CRPS [1] = assay: Mechanical sensitivity (paw withdrawal threshold, von Frey) after topical application to the ipsilateral hind paw of CPIP rats; assay type: in vivo; conditions: for maximum change in PWTs after topical application: dose response comparison, Lin-CafA has half of the linsidomine content
From the text: Topical drugs were formulated into ointment-type preparation using a composite, water-soluble polyethylene glycol base system consisting of 40% carbowax (PEG 3350) and 60% PEG 400 (both from Sigma Aldrich). The required amounts of the active ingredients were first weighted out and then added to the already molten base and mixed well. The vehicle treatment consisted of the same water-miscible base ointment without the addition of the active drugs. The Chronic Post-ischemic Pain (CPIP) rat model of CRPS was prepared by inducing prolonged hind paw ischemia and subsequent reperfusion, as previously described by Coderre et. al., Pain, 112(1):94-105, 2004. In short, male Long Evans rats (300-400 g; Charles River, QC, Canada) were anesthetized over a 3-hour period with a bolus (55 mg/kg, intraperitoneally [i.p.]) followed by chronic i.p. infusion (0.15 mL/hour) of sodium pentobarbital (Ceva Sante Animale, Libourne, France) for 2 hours. Following induction of anesthesia, a Nitrile 70 Durometer O-ring (O-rings West, Seattle, Wash.) with an internal diameter of 5.5-mm was slipped around the rat's left hind limb proximal to the ankle joint to effect a complete blockade of arterial blood flow ([…] al., Mol Pain, 4:49, 2008). The ring was left in place for 3 hours, and the rats recovered from anesthesia 30 to 60 minutes following reperfusion. Mechanical Sensitivity Testing As a measure of mechanical sensitivity, paw withdrawal threshold (PWT), was tested on plantar surface of the ipsilateral hind paw of the CPIP rats. The rats were first habituated for 30 minutes in the testing chambers. Nylon monofilaments (von Frey hairs) with thickness designed to apply stimulus intensity ranging between 1 g and 15 g were applied to the plantar surface of the rats' hind-paw. The filaments were applied for 10 seconds or until flexion reflex occurred. PWTs were determined using Chaplan's up and down method after testing with the filaments in either ascending (after negative response) or descending (after positive response) order to find the correct response pattern which was later matched with its corresponding 50% threshold of paw withdrawal (Chaplan et al., J Neurosci Methods, 53:55-63, 1994). Time course measurements of PWTs after vehicle and drug administration were subjected to a repeated measure analysis of variance (ANOVA). Pairwise comparison was performed between PWTs obtained from drug and vehicle treatment groups measured at matching post-treatment times using Tukey's HSD test. Cumulative anti-allodynic effect measured over 180-minute time course experiments was assessed by calculating the area under the curve (AUC) of PWT elevations plotted post-topical application. Comparisons of different drug doses versus vehicle were performed using repeated measure ANOVA followed by Tukey's HSD test. Dose response curves for comparison of anti-allodynic potency were plotted on a semi-log scale with the amount of drug used per application on the X-axis and the AUC of the 180-minute PWT measured or change in PWT obtained post-drug application on the Y-axis. The linear regression of the dose-response curves was then calculated, and their difference analysed using a 1-way ANOVA. The synthesized salts/co-crystals of […], clonidine and […] were formulated into a polyethylene based topical ointment and their analgesic efficacy and potency tested and compared to their parent drugs on the CPIP rat model of CRPS.

CPIP rat model of CRPS [2] = assay: Systemic absorption control: topical application to the uninjured contralateral paw, PWT of the injured CRPS paw; assay type: in vivo; conditions: concentration previously shown to relieve allodynia; PWT of injured paw at 30, 60, 120 and 180 minutes
Description: Mechanical Sensitivity Testing As a measure of mechanical sensitivity, paw withdrawal threshold (PWT), was tested on plantar surface of the ipsilateral hind paw of the CPIP rats. The rats were first habituated for 30 minutes in the testing chambers. Nylon monofilaments (von Frey hairs) with thickness designed to apply stimulus intensity ranging between 1 g and 15 g were applied to the plantar surface of the rats' hind-paw. The filaments were applied for 10 seconds or until flexion reflex occurred. PWTs were determined using Chaplan's up and down method after testing with the filaments in either ascending (after negative response) or descending (after positive response) order to find the correct response pattern which was later matched with its corresponding 50% threshold of paw withdrawal (Chaplan et al., J Neurosci Methods, 53:55-63, 1994).
To assess for any contribution systemic absorption might have to the anti-allodynic effects seen with the novel salts and co-crystals, we performed a control experiment using contralateral topical administration of the compounds. A topical preparation of the salts and co-crystals at a concentration proven to produce anti-allodynia, was applied to the uninjured contralateral paw of the CRPS rats and the effect this had on the PWT of the injured CRPS paw was measured at 30, 60, 120 and 180 minutes post topical application. The PWT obtained at 30, 60, 120 and 180 minutes post topical application were then compared with the values obtained after direct topical application on the injured CPRS paw.

Molecule: pentoxifylline-gallic acid [Pntx-GallA]
- anti-allodynic effects of topical formulations (CPIP rat model of CRPS [1]; Pntx-GallA, CRPS rats, overall): modest anti-allodynic effects
- difference in change in PWT versus respective doses of Pntx (CPIP rat model of CRPS [1]; different doses, 3 hours of testing following topical application): no significant measurable difference
- improvement in PWT compared to vehicle (CPIP rat model of CRPS [1]; observed at the only dose of 4% W/W, p<0.05): significant improvement in PWT

Molecule: O=C(O)/C=C/c1ccc(O)c(O)c1 [CafA, caffeic acid, reference compound]
- anti-allodynic effects of topical administration on its own (CPIP rat model of CRPS [1]; CafA alone, FIG. 9C): no anti-allodynic effects
- anti-allodynic effect upon topical application (CPIP rat model of CRPS [1]; CafA alone, three concentrations corresponding to W/W levels in the Pntx-CafA co-crystal, n=10): no anti-allodynic effect

Molecule: Clc1cccc(Cl)c1NC1=NCCN1.O=C(O)CCCCC1CCSS1 [Clon-ALA, clonidine α-lipoate]
- rise in PWTs compared to vehicle (CPIP rat model of CRPS [1]; 0.025% w/w, 30 minutes post-application): significant rise in PWTs
- duration of elevated PWTs (CPIP rat model of CRPS [1]; 0.05% w/w, compared to 0.025% (30 minutes)): stay significantly higher for twice as long
- increase in potency (CPIP rat model of CRPS [1]; Clon-ALA compared to Clon-HCl): ~2 ×
- leftward shift of x-intercept of the dose response curve (CPIP rat model of CRPS [1]; Clon-ALA compared to Clon-HCl, p=0.04): 0.265 log units
- relief of mechanical hypersensitivity (CPIP rat model of CRPS [1]; topical Clon-ALA, different doses, n=7): dose-dependently, relieves mechanical hypersensitivity
- anti-allodynic effects when applied to the contralateral (uninjured) paw (CPIP rat model of CRPS [2]): no anti-allodynic effects

Molecule: [NH-]c1c[n+](N2CCOCC2)no1 [linsidomine chloride, reference compound]
- maximum change in PWTs after topical application (CPIP rat model of CRPS [1]): 6.23±0.99

Molecule: O=C(O)c1ccc(O)c(O)c1 [PCA, protocatechuic acid, reference compound]
- anti-allodynic effect compared to vehicle (CPIP rat model of CRPS [1]; PCA alone, topical, at the w/w doses contained in the Pntx-PCA co-crystal): does not produce significant anti-allodynic effects

Molecule: pentoxifylline protocatechuate [Pntx-PCA]
- cumulative 3-hour anti-allodynic effect (CPIP rat model of CRPS [1]; 2.5% W/W Pntx-PCA (1.5% Pntx and 1% PCA) compared to 3.5% Pntx and 2% PCA W/W): significantly exceeds the effect achieved by double the amount of its constituent drugs
- increase in potency (CPIP rat model of CRPS [1]; Pntx-PCA compared to Pntx, from shift of log-dose response curve): ~4 fold
- leftward shift of the log-dose response curve (CPIP rat model of CRPS [1]; Pntx-PCA compared to Pntx, p=0.0113): 0.59 log units
- anti-allodynic effect (PWT) compared to ointment base alone (CPIP rat model of CRPS [1]; topical 5 and 10% W/W, ipsilateral hind paw, 30 to 60 minutes post-application, n=8): significant anti-allodynic effects
- anti-allodynic effects when applied to the contralateral (uninjured) paw (CPIP rat model of CRPS [2]): no anti-allodynic effects

Molecule: Nc1c[n+](N2CCOCC2)no1.O=C([O-])/C=C/c1ccc(O)c(O)c1 [Lin-CafA, linsidomine caffeate]
- elevation of PWTs compared to vehicle (CPIP rat model of CRPS [1]; 1.6% w/w, 30, 60 and 120 minutes post-application): significantly elevates PWTs to non-allodynic values
- increase in potency (CPIP rat model of CRPS [1]; Lin-CafA compared to Lin-Cl): ~2.5 fold
- leftward shift of x-intercept of the dose response curve (CPIP rat model of CRPS [1]; Lin-CafA compared to Lin-Cl, p=0.0026): 0.3966 log units
- efficacy and potency compared with linsidomine chloride (CPIP rat model of CRPS [1]; comparison of dose response curves): greater efficacy and potency
- maximum change in PWTs after topical application (CPIP rat model of CRPS [1]): 9.6±1.15
- anti-allodynic effect compared to vehicle (CPIP rat model of CRPS [1]; topical W/W 1.6% and 0.8%, for as long as 120 minutes post-application, n=9): significant anti-allodynic effect
- anti-allodynic effects when applied to the contralateral (uninjured) paw (CPIP rat model of CRPS [2]): no anti-allodynic effects

Molecule: CC(=O)CCCCn1c(=O)c2c(ncn2C)n(C)c1=O.O=C(O)C=Cc1ccc(O)c(O)c1 [Pntx-CafA, pentoxifylline caffeate]
- anti-allodynic potency in linear segment of dose-response curve (CPIP rat model of CRPS [1]; Pntx-CafA 2% W/W and 1% W/W compared to Pntx alone): more potent anti-allodynic effect
- elevation of PWTs compared to vehicle (CPIP rat model of CRPS [1]; topical 2% W/W, 60, 120 and 180 minutes post application, n=10): significant and sustained elevation of PWTs
- anti-allodynic effect at higher dose (CPIP rat model of CRPS [1]; topical 4% W/W compared to 2% W/W): did not improve
